CAR-induced swelling and IC50 data for 3 molecules are collected here from patent publication US20150225369A1, “DDR2 INHIBITORS FOR THE TREATMENT OF OSTEOARTHRITIS” (Merck Patent GmbH, priority 2012, published 2015).

Assay [1] has as its system CAR-induced swelling and thermal hyperalgesia. The assay can be described thus: Anti-hyperalgesic effect in animals (carrageenan injected into rat knee joint; swelling, Hargreaves test). Format: in vivo. The settings on record: intra-articular administration 30 minutes before CAR, TAC 10 μg/joint. The method, then:
In order to induce an inflammation reaction, a carrageenan solution (CAR, 1%, 50 μl) was injected intra-articularly on one side into a rat knee joint. The uninjected side was used for control purposes. Six animals per group were used. The […] was determined by means of a micrometer screw (medial-lateral on the knee joint), and the thermal hyperalgesia was determined by means of a directed infrared light source by the Hargreaves method (Hargreaves et al., 1988) on the sole of the foot. Since the site of inflammation (knee joint) is different from the site of measurement (paw sole), use is made here of the term secondary thermal hyperalgesia, the mechanism of which is of importance for the discovery of effective analgesics.
Experimental description of thermal hyperalgesia (Hargreaves test): the experimental animal is placed in a plastic chamber on a quartz sheet. Before testing, the experimental animal is firstly given about 5-15 minutes time to familiarise itself with the environment. […] Light reflected by the paw is recorded as long as the experimental animal sits still. Withdrawal of the paw interrupts this reflection, after which the infrared light source is switched off and the time from switching on to switching off is recorded. […]

Assay [2] concerns the target T1, His-tagged human recombinant DDR-2 kinase domain (His-TEV-DDR2 467-855 aa) (Homo sapiens, UniProt Q16832).
T1 construct: His-TEV-DDR2 467-855 aa
T1 sequence (Q16832 467-855): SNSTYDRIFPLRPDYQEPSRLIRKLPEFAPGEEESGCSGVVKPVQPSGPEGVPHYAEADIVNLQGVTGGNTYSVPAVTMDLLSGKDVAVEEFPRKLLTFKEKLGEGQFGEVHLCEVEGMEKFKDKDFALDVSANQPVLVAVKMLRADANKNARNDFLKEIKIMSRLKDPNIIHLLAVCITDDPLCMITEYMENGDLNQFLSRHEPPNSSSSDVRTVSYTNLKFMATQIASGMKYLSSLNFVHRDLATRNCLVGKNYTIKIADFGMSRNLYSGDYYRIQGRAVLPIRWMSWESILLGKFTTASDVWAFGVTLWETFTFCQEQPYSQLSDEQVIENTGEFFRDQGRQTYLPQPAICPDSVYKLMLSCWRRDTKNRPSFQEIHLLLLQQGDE
The assay can be described thus: Autophosphorylation assay for biochemical activity testing of DDR2 (HTRF). An outline of the steps: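 Phospho-tyrosine was detected by HTRF between XL665 anti-6His and cryptate anti-phosphotyrosine PT66 antibodies, using the emission ratio. Inhibition was referenced to the inhibitor-free reaction.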
(TR-FRET usually uses a lanthanide donor and a delayed reading to cut background.)

Assay [3] deals with proMMP13 production by SW1353 cells. As to the kind of experiment: Production of MMP13 (proMMP13 ELISA) by SW1353 cells upon stimulation with collagen type II. It is filed as cell-based. The conditions noted are these: Homo sapiens, SW1353, 72 h, read-out: IC50 [pro-MMP13]. The protocol: The binding of Collagen type II to the DDR2 receptor of the SW1353 cells initiate a signalling cascade resulting in the increase of MMP13 expression. MMP13 is released in the culture medium in its pro-form, the proMMP13 which can be measured with an ELISA.
DDR2 inhibitors are evaluated for their ability to block this signalling cascade and therefore proMMP13 production upon collagen stimulation.
SW1353 cells (ATCC, HTB-94), conserved in liquid nitrogen, are thawed and cultivated at 1.6.10^6 cells in a T75 in RPMI1640 supplemented with 2 mM Glutamin, 1 mM Na-Pyruvate, 10% FCS, at 37° C., 5% CO2 for three days. SW1353 cells are then harvested with trypsin/EDTA and resuspended in RPMI1640 supplemented with 2 mM Glutamin, 1 mM Na-Pyruvate, 25 mM HEPES and 0.5% FCS (assay medium) and inoculated in a 96 well plate at 30 000 cells/well in 100 μL of the assay medium and further incubated 24 hours at 37°, 5% CO2 to enable cell adhesion. For stimulation of the DDR2 receptor, 50 μL of a collagen type II solution 160 μg/mL (final concentration in the well is 40 μg/mL) will be added in each well as well as 50 μL of the different dilutions of the inhibitors (MSCs) from 0.003 μM to 10 μM (final concentration in the plate). Each condition is performed in four-plicates. After three additional days of culture, the supernatant will be harvested for proMMP13 measurement.
The Different Controls Present on Each Plate are Composed of Assay Medium with: Positive control (with the reference compound): 40 μg/mL Collagen type II, 0.03 μM Dasatinib (reference compound) in 0.1% DMSO Negative control (no inhibition): 40 μg/mL Collagen type II and 0.1% DMSO Medium control (no stimulation): 0.005% Acetic acid and 0.1% DMSO All wells contains 0.1% DMSO and 0.005% acetic acid.
The solutions needed are: • Collagen type II is diluted at 2 mg/mL in 0.25% acetic acid. This stock solution can be stored at 4° C. for a week and is diluted 1/12.5 in the assay medium (to obtain 160 μg/mL in 0.02% acetic acid) before being used in the assay. • MSCs from 0.012 to 40 μM in assay medium with 0.4% DMSO (they are then further diluted ¼ in the assay plate) • Dasatinib 0.12 μM in assay medium with 0.4% DMSO (it is then further diluted ¼ in the assay plate) • Acetic acid 0.02% in assay medium (control).
The harvested supernatants are either directly used or stored at −20° C. until use. ProMMP13 is measured with a commercial ELISA kit, according the recommendation of the manufacturer (see Annex). Briefly, 50 μL of each samples are used undiluted and the standard curve is realised in the assay medium. At the end of the assay the ELISA plate is read on a Paradigm MTP-Reader (Beckman Coulter) at 540 (reference wavelength) and 450 nm. All the absorbance values obtained at 450 nm are corrected with the absorbance at 540 nm and a ‘Four Parameter Fit’ is used to establish the standard curve. From the standard curve the concentrations of proMMP13 in all the samples are calculated. All the calculations are realised by the Paradigm software.
The data reported in the database are the % effect of the compounds at the two highest concentrations (10 and 3 μM) as well as the IC50.
% effect at the two highest concentrations is calculated according to the formula: […]
The IC50s are calculated with the software Graph Pad Prism (see tables in Example 1).
(In general: In an ELISA, binding on a coated surface is turned into a signal by an enzyme label.)

Assay [4] deals with T2, HEK293 transfected with human DDR2 (Homo sapiens, UniProt Q16832).
T2 construct: expressed in transfected cells; host or cells: HEK293 (PLT460F_(DDR2)-P7-1)
T2 sequence (Q16832 22-855): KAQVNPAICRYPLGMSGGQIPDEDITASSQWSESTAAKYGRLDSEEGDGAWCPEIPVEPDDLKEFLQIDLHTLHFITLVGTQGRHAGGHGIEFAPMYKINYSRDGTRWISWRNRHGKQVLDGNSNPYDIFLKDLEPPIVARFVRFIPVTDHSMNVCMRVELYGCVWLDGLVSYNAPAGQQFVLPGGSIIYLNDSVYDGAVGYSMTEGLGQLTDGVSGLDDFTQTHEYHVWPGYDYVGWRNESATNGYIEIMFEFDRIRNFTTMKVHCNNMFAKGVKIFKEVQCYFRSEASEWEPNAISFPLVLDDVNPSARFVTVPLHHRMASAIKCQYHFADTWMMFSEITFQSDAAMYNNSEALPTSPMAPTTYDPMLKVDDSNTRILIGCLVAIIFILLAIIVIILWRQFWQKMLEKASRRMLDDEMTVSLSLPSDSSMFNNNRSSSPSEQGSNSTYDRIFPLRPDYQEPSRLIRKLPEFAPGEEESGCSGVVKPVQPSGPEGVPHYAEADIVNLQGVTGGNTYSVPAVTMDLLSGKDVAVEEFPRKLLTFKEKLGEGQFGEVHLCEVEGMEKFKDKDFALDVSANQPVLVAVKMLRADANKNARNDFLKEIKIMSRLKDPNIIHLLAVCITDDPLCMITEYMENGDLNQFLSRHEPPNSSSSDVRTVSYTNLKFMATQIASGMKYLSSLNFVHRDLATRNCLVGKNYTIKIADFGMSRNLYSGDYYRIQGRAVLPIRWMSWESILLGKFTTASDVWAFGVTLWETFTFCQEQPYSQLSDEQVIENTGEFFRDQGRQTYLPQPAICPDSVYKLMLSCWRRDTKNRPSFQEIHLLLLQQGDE
The assay can be described thus: Phospho-DDR2 cellular assay (collagen II induced DDR2 phosphorylation, ELISA). The conditions noted are these: cellular phospho-DDR2; read-out: IC50 [p-DDR2]. It is filed as cell-based. A digest of the protocol:
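Cells seeded 48 h in 10% FBS, serum-starved 8 h, then given compound (5% DMSO) with 50 μg/ml chicken collagen II for 16 h at 37 °C. Lysates captured on anti-DDR2 antibody plates; phospho-DDR2 detected with HRP anti-phosphotyrosine antibody by chemiluminescence.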

One may read the IC50 as the point on the concentration scale where inhibition reaches its midpoint.

The structures appear in SMILES notation.

With `C[C@]12C=CC(=O)C=C1CC[C@H]1[C@@H]3C[C@@H](O)[C@](O)(C(=O)CO)[C@@]3(C)C[C@H](O)[C@@]12F` [TAC, Triamcinolone], the CAR-induced swelling result in assay [1] is “capable of reducing the CAR-induced swelling”.

On to `CNC(=O)c1cc(Oc2ccc(CNC(=O)Nc3cc(Cl)cnc3Cl)cc2)ccn1` [compound 8], for which the IC50 worked out at 130 nM in assay [2] (4 nM DDR2 kinase domain, 150 μM ATP, 150 min at 22° C.) and 278 nM in assay [3].

On to `CNC(=O)c1cc(Oc2ccc(CNC(=O)Nc3cc(Cl)ccc3OC)cc2F)ccn1` [compound 232, 4-{4-[3-(5-Chloro-2-methoxy-phenyl)-ureidomethyl]-2-fluoro-phenoxy}-pyridine-2-carboxylic acid methylamide], for which the IC50 came out at 52 nM in assay [2] (biochemical DDR2 autophosphorylation) and 19 nM in assay [4].
